Source: ChEMBL document CHEMBL1201862, “PubChem BioAssay data set” (2004)
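Dose response: 5 concentrations. Exposure: 48 h. Format: 96-well plates. Endpoint: linear interpolation; highest concentration if not reached. Abbreviation: GI50, concentration required for 50% inhibition of growth.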 Activity calls are given as the source filed them. Cut-off read from the data, not from the text of the source: active = GI50 up to about 1.1 µM and inactive = higher.

What was measured:
Test in all cases: NCI tumour cell line growth inhibition, 48 h
SNB-19 = tested on: SNB-19
Malme-3M = tested on: Malme-3M
RXF 393 = tested on: RXF 393
SK-OV-3 = tested on: SK-OV-3
NCI-H522 = tested on: NCI-H522
HCT-15 = tested on: HCT-15
HCC 2998 = tested on: HCC 2998
UACC-257 = tested on: UACC-257
U-251 = tested on: U-251
SF-295 = tested on: SF-295
UO-31 = tested on: UO-31
CCRF-CEM = tested on: CCRF-CEM
SN12C = tested on: SN12C
K562 = tested on: K562
OVCAR-8 = tested on: OVCAR-8
LOX IMVI = tested on: LOX IMVI
OVCAR-5 = tested on: OVCAR-5
CAKI-1 = tested on: CAKI-1

Row | Structure (SMILES) | GI50 (SNB-19) | GI50 (Malme-3M) | GI50 (RXF 393) | GI50 (SK-OV-3) | GI50 (NCI-H522) | GI50 (HCT-15) [µM] | GI50 (HCC 2998) | GI50 (UACC-257) | GI50 (U-251) | GI50 (SF-295) | GI50 (UO-31) | GI50 (CCRF-CEM) | GI50 (SN12C) | GI50 (K562) | GI50 (OVCAR-8) | GI50 (LOX IMVI) | GI50 (OVCAR-5) | GI50 (CAKI-1)
1 | CC(=O)c1cccc(N2COC(C)(C)c3nc4ccccc4n3C2)c1 | > 100 µM (inactive) | > 100 µM (inactive) | > 100 µM (inactive) | > 100 µM (inactive) | > 100 µM (inactive) | > 100 | > 100 µM (inactive) | > 100 µM (inactive) | > 100 µM (inactive) | > 100 µM (inactive) | > 100 µM (inactive) | > 100 µM (inactive) | > 100 µM (inactive) | > 100 µM (inactive) | > 100 µM (inactive) | > 100 µM (inactive) |  | 
2 | CC(=O)Nc1cc2c(s1)CCC1CC(=O)NN=C21 (stereo unspecified) | > 100 µM (inactive) | > 100 µM (inactive) | > 100 µM (inactive) |  | > 100 µM (inactive) | > 100 |  |  | > 100 µM (inactive) | > 100 µM (inactive) | > 100 µM (inactive) | > 100 µM (inactive) | > 100 µM (inactive) | > 100 µM (inactive) | > 100 µM (inactive) | > 100 µM (inactive) | > 100 µM (inactive) | 
3 | CC(C)(c1ccc(C=O)o1)c1ccc(C(C)(C)c2ccc(C=O)o2)o1 | > 100 µM (inactive) | > 100 µM (inactive) | > 100 µM (inactive) | > 100 µM (inactive) | > 100 µM (inactive) |  | > 100 µM (inactive) | > 100 µM (inactive) | > 100 µM (inactive) | > 100 µM (inactive) |  | > 100 µM (inactive) |  | > 100 µM (inactive) | > 100 µM (inactive) | > 100 µM (inactive) | > 100 µM (inactive) | > 100 µM (inactive)
4 | CC1(C)CCC[C@@]2(C)C1CCC1(C)C(CCc3ccoc3)/C(=C/OS(=O)(=O)O)CCC12 (stereo partly specified) | > 100 µM (inactive) | > 100 µM (inactive) | 61.9 µM (inactive) | 71.9 µM (inactive) |  | 49.5 | > 100 µM (inactive) | > 100 µM (inactive) | 57.5 µM (inactive) | 49.9 µM (inactive) | 72.3 µM (inactive) | 25.4 µM (inactive) | > 100 µM (inactive) | 31.2 µM (inactive) | > 100 µM (inactive) | > 100 µM (inactive) | > 100 µM (inactive) | > 100 µM (inactive)
5 | COc1cccc(NC(=O)C(=O)C(C(C)=O)c2nc3ccc(Cl)cc3nc2O)c1 (stereo unspecified) | > 100 µM (inactive) | > 100 µM (inactive) | > 100 µM (inactive) | > 100 µM (inactive) |  | > 100 | > 100 µM (inactive) | > 100 µM (inactive) | > 100 µM (inactive) | > 100 µM (inactive) | > 100 µM (inactive) | > 100 µM (inactive) | > 100 µM (inactive) | > 100 µM (inactive) | > 100 µM (inactive) | > 100 µM (inactive) | > 100 µM (inactive) | > 100 µM (inactive)
6 | CC(=O)OCC1OC(n2cc(F)c(=O)[nH]c2=O)C(NC(=O)N(CCCl)N=O)C(OC(C)=O)C1OC(C)=O (stereo unspecified) | > 100 µM (inactive) | > 100 µM (inactive) |  | > 100 µM (inactive) | > 100 µM (inactive) |  |  | > 100 µM (inactive) | 88.9 µM (inactive) | 43.1 µM (inactive) | > 100 µM (inactive) | > 100 µM (inactive) | > 100 µM (inactive) | > 100 µM (inactive) | > 100 µM (inactive) | 43.3 µM (inactive) |  | > 100 µM (inactive)
7 | CCCCN(CCCC)CC(C(C)=O)C(c1ccccc1)c1c(O)c2ccccc2oc1=O (stereo unspecified) | > 100 µM (inactive) | > 100 µM (inactive) | 84.7 µM (inactive) | > 100 µM (inactive) | > 100 µM (inactive) | > 100 | > 100 µM (inactive) | > 100 µM (inactive) | > 100 µM (inactive) | > 100 µM (inactive) |  | > 100 µM (inactive) | > 100 µM (inactive) | > 100 µM (inactive) | > 100 µM (inactive) | > 100 µM (inactive) | > 100 µM (inactive) | > 100 µM (inactive)
8 | CC1CC(c2cccc3c2OCO3)=Nc2ccccc2S1 (stereo unspecified) | > 100 µM (inactive) | > 100 µM (inactive) | > 100 µM (inactive) | > 100 µM (inactive) | > 100 µM (inactive) | > 100 | > 100 µM (inactive) | > 100 µM (inactive) |  | > 100 µM (inactive) | > 100 µM (inactive) | > 100 µM (inactive) | > 100 µM (inactive) | > 100 µM (inactive) | > 100 µM (inactive) | > 100 µM (inactive) | > 100 µM (inactive) | > 100 µM (inactive)
9 | COc1cc(/C=C(\C#N)C(=O)c2ccccc2)ccc1OCc1ccccc1 | > 100 µM (inactive) |  |  | > 100 µM (inactive) | > 100 µM (inactive) | > 100 | > 100 µM (inactive) | > 100 µM (inactive) |  | > 100 µM (inactive) | > 100 µM (inactive) | > 100 µM (inactive) | > 100 µM (inactive) | > 100 µM (inactive) | > 100 µM (inactive) | > 100 µM (inactive) | > 100 µM (inactive) | > 100 µM (inactive)
10 | CN(C)c1ccc(-c2nc(N)nc3c2CCCC3)cc1 | > 100 µM (inactive) | 46.1 µM (inactive) | 34 µM (inactive) | > 100 µM (inactive) | 25.2 µM (inactive) |  | 80 µM (inactive) |  | 53.7 µM (inactive) | 38.5 µM (inactive) | 41.5 µM (inactive) | 50.5 µM (inactive) | 37.9 µM (inactive) | 29.3 µM (inactive) | 74.5 µM (inactive) | 31.3 µM (inactive) | > 100 µM (inactive) | 52.1 µM (inactive)
11 | Cc1ccc(S(=O)(=O)SCc2ccccc2CSS(=O)(=O)c2ccc(C)cc2)cc1 | > 100 µM (inactive) | 24.2 µM (inactive) | 15.7 µM (inactive) | > 100 µM (inactive) | 10.9 µM (inactive) | 19.5 | 75.2 µM (inactive) | 71.9 µM (inactive) | 28.6 µM (inactive) | 79.8 µM (inactive) | 78.3 µM (inactive) |  | 17.7 µM (inactive) | 15.7 µM (inactive) | 24.5 µM (inactive) | 15.8 µM (inactive) | > 10 µM (inactive) | 22.9 µM (inactive)
12 | CC(C)[C@@H](COC(C)(C)C)/N=C/N1CCc2c([nH]c3ccccc23)C1 | > 100 µM (inactive) |  | > 100 µM (inactive) | > 100 µM (inactive) | > 100 µM (inactive) | > 100 | 80 µM (inactive) |  | > 100 µM (inactive) | > 100 µM (inactive) | 84.9 µM (inactive) | > 100 µM (inactive) | > 100 µM (inactive) | > 100 µM (inactive) | > 100 µM (inactive) | > 100 µM (inactive) | > 100 µM (inactive) | 
13 | CN(C)CC/C(=N\Nc1ccc(Cl)cc1)c1ccccc1 | 2.43 µM (inactive) | 1.98 µM (inactive) | 2.57 µM (inactive) | 2.22 µM (inactive) | 1.32 µM (inactive) | 0.327 |  | 1.64 µM (inactive) | 0.513 µM (active) | 0.374 µM (active) | 0.25 µM (active) | 0.417 µM (active) | 1.58 µM (inactive) | 0.327 µM (active) | 2.24 µM (inactive) | 0.256 µM (active) | 1.24 µM (inactive) | 
